# From PubChem BioAssay AID192 (DTP/NCI, 2004)
# “And” between values parts separate entries of the source, which are not always exact repeats. Equal entries are not always repeated. Toxic doses and inconclusive results are not listed.
# System: BDF1 mice, B16 melanoma ip, median survival T/C
# Test: NCI In Vivo Anticancer Drug Screen. Data for tumor model B16 Melanoma (intraperitoneal) in B6D2F1 (BDF1) mice
# Settings: endpoint: median survival time, higher = longer survival
# Outline: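 Tumor-bearing mice received test compound or vehicle. Survival or tumor size was then measured in both groups. The treated-group figure was divided by the control-group figure.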
# [1] = dose: 100.0 mg/kg/injection, schedule: Q04DX003 (ip), vehicle: Klucel (hydroxypropylcellulose) (HPC)
# [2] = dose: 200.0 mg/kg/injection, schedule: Q04DX003 (ip), vehicle: Klucel (hydroxypropylcellulose) (HPC)
# [3] = dose: 400.0 mg/kg/injection, schedule: Q04DX003 (ip), vehicle: Klucel (hydroxypropylcellulose) (HPC)
# [4] = dose: 100.0 mg/kg/injection, schedule: Q01DX009 (ip), vehicle: Klucel (hydroxypropylcellulose) (HPC)
# [5] = dose: 50.0 mg/kg/injection, schedule: Q01DX009 (ip), vehicle: Klucel (hydroxypropylcellulose) (HPC)
# [6] = dose: 200.0 mg/kg/injection, schedule: Q01DX009 (ip), vehicle: Klucel (hydroxypropylcellulose) (HPC)
# [7] = dose: 6.25 mg/kg/injection, schedule: Q01DX009 (ip), vehicle: saline with Tween-80
# [8] = dose: 12.5 mg/kg/injection, schedule: Q01DX009 (ip), vehicle: saline with Tween-80
# [9] = dose: 25.0 mg/kg/injection, schedule: Q01DX009 (ip), vehicle: saline with Tween-80
# [10] = dose: 100.0 mg/kg/injection, schedule: Q01DX009 (ip), vehicle: saline with Tween-80
# [11] = dose: 200.0 mg/kg/injection, schedule: Q01DX009 (ip), vehicle: saline with Tween-80
# [12] = dose: 12.5 mg/kg/injection, schedule: Q01DX009 (ip), vehicle: Klucel (hydroxypropylcellulose) (HPC)
# [13] = dose: 25.0 mg/kg/injection, schedule: Q01DX009 (ip), vehicle: Klucel (hydroxypropylcellulose) (HPC)
# [14] = dose: 400.0 mg/kg/injection, schedule: Q01DX009 (ip), vehicle: Klucel (hydroxypropylcellulose) (HPC)
# [15] = dose: 1.5 mg/kg/injection, schedule: Q01DX009 (ip), vehicle: saline
# [16] = dose: 12.0 mg/kg/injection, schedule: Q01DX009 (ip), vehicle: saline
smiles,measurement,setting,value
CCOC(=O)C(NC(C)=O)C(=O)OCC,T/C,[1],90 % of control
same,T/C,[2],102 % of control
same,T/C,[3],95 % of control
CCC(=O)N(C)[C@@H](C)C(=O)O[C@H]1CC(=O)N(C)c2cc(cc(OC)c2Cl)C/C(C)=C/C=C[C@@H](OC)[C@@]2(O)C[C@H](OC(=O)N2)[C@@H](C)[C@@H]2O[C@@]12C,T/C,"dose: 2.5 micrograms/kg/injection, schedule: Q01DX009 (ip), vehicle: saline + alcohol",156 % of control
same,T/C,"dose: 3.8 micrograms/kg/injection, schedule: Q01DX009 (ip), vehicle: saline + alcohol",171 % of control
same,T/C,"dose: 5.0 micrograms/kg/injection, schedule: Q01DX009 (ip), vehicle: saline + alcohol",167 % of control and 171 % of control
same,T/C,"dose: 7.5 micrograms/kg/injection, schedule: Q01DX009 (ip), vehicle: saline + alcohol",191 % of control
same,T/C,"dose: 10.0 micrograms/kg/injection, schedule: Q01DX009 (ip), vehicle: saline + alcohol",168 % of control and 181 % of control
same,T/C,"dose: 15.0 micrograms/kg/injection, schedule: Q01DX009 (ip), vehicle: saline + alcohol",151 % of control and 196 % of control
same,T/C,"dose: 30.0 micrograms/kg/injection, schedule: Q01DX009 (ip), vehicle: saline + alcohol",103 % of control
CCCCCCCCC(=O)NCCCOC,T/C,[1],107 % of control
same,T/C,[2],101 % of control
same,T/C,[3],93 % of control
O=NN(CCBr)C(=O)NCCBr,T/C,"dose: 50.0 mg/kg/injection, schedule: Q01DX009 (ip), vehicle: gum acacia",107 % of control
same,T/C,"dose: 66.0 mg/kg/injection, schedule: Q01DX009 (ip), vehicle: gum acacia",109 % of control
same,T/C,"dose: 100.0 mg/kg/injection, schedule: Q01DX009 (ip), vehicle: gum acacia",116 % of control
O=P(CCCCCCP(=O)(N1CC1)N1CC1)(N1CC1)N1CC1,T/C,[4],176 % of control
CCOc1cc(N)ccc1C,T/C,[5],93 % of control
same,T/C,[4],93 % of control
same,T/C,[6],95 % of control
C=C1CCN(c2ccc([N+](=O)[O-])cc2)C1=O,T/C,"dose: 4.0 mg/kg/injection, schedule: Q01DX009 (ip), vehicle: saline + alcohol",97 % of control
same,T/C,"dose: 8.0 mg/kg/injection, schedule: Q01DX009 (ip), vehicle: saline + alcohol",107 % of control
same,T/C,"dose: 16.0 mg/kg/injection, schedule: Q01DX009 (ip), vehicle: saline + alcohol",98 % of control
same,T/C,"dose: 32.0 mg/kg/injection, schedule: Q01DX009 (ip), vehicle: saline + alcohol",89 % of control
same,T/C,"dose: 64.0 mg/kg/injection, schedule: Q01DX009 (ip), vehicle: saline + alcohol",95 % of control
Nc1ncnc2c1ncn2C1OCC(O)C1O (stereo unspecified),T/C,"dose: 12.5 mg/kg/injection, schedule: Q01DX009 (ip), vehicle: saline",101 % of control
same,T/C,"dose: 25.0 mg/kg/injection, schedule: Q01DX009 (ip), vehicle: saline",108 % of control
same,T/C,"dose: 50.0 mg/kg/injection, schedule: Q01DX009 (ip), vehicle: saline",116 % of control
COC(=O)c1ccc(C(=O)OC)cc1,T/C,"dose: 0.05 mg/kg/injection, schedule: Q04DX003 (ip), vehicle: water",103 % of control
same,T/C,"dose: 0.1 mg/kg/injection, schedule: Q04DX003 (ip), vehicle: water",96 % of control
same,T/C,"dose: 0.2 mg/kg/injection, schedule: Q04DX003 (ip), vehicle: water",106 % of control
same,T/C,"dose: 0.4 mg/kg/injection, schedule: Q04DX003 (ip), vehicle: water",113 % of control
Cc1ccc(NC(=O)CCl)cc1C,T/C,[7],102 % of control
same,T/C,[8],100 % of control
same,T/C,[9],95 % of control
same,T/C,[10],95 % of control
same,T/C,[11],95 % of control
Cc1cc(O)c(C(C)C)cc1S(=O)(=O)O (tested in a mixture with another compound),T/C,"dose: 50.0 mg/kg/injection, schedule: Q01DX009 (ip), vehicle: saline with Tween-80",98 % of control
same,T/C,[11],100 % of control
CCCCNC(C)(C)C(SSSC(c1ccc(Cl)cc1)C(C)(C)NCCCC)c1ccc(Cl)cc1 (stereo unspecified),T/C,[12],97 % of control
same,T/C,[13],89 % of control
COc1ccc(OC(=O)Nc2ccccc2Cl)cc1,T/C,[1],106 % of control
same,T/C,[2],103 % of control
same,T/C,[3],103 % of control
CCC(C)NC(=O)Nc1cccc(Cl)c1C (stereo unspecified),T/C,[10],102 % of control
same,T/C,[11],96 % of control
O=C(O)CCC1CCCCC1=O (stereo unspecified),T/C,[6],120 % of control
same,T/C,[14],100 % of control
CCCCC1CCCCCCc2[nH]c(/C=C3\N=C(c4ccc[nH]4)C=C3OC)cc21 (stereo unspecified),T/C,"dose: 62.0 micrograms/kg/injection, schedule: Q01DX009 (ip), vehicle: saline with Tween-80",106 % of control
same,T/C,"dose: 125.0 micrograms/kg/injection, schedule: Q01DX009 (ip), vehicle: saline with Tween-80",96 % of control
same,T/C,"dose: 250.0 micrograms/kg/injection, schedule: Q01DX009 (ip), vehicle: saline with Tween-80",92 % of control
same,T/C,"dose: 500.0 micrograms/kg/injection, schedule: Q01DX009 (ip), vehicle: saline with Tween-80",103 % of control
Cc1ccc(NC(=O)C(Cl)(Cl)Cl)cc1C,T/C,[4],96 % of control
same,T/C,[6],96 % of control
same,T/C,[14],96 % of control
C/C=C(\C)C(=O)O[C@@H]1c2cc3c(cc2-c2c(cc(OC)c(OC)c2OC)[C@@H]2C(=O)OC[C@@H]12)OCO3,T/C,"dose: 1.25 mg/kg/injection, schedule: Q01DX009 (ip), vehicle: Klucel (hydroxypropylcellulose) (HPC)",101 % of control
same,T/C,"dose: 2.5 mg/kg/injection, schedule: Q01DX009 (ip), vehicle: Klucel (hydroxypropylcellulose) (HPC)",107 % of control
same,T/C,"dose: 5.0 mg/kg/injection, schedule: Q01DX009 (ip), vehicle: Klucel (hydroxypropylcellulose) (HPC)",92 % of control
same,T/C,"dose: 10.0 mg/kg/injection, schedule: Q01DX009 (ip), vehicle: Klucel (hydroxypropylcellulose) (HPC)",96 % of control
O=[N+]([O-])c1ccc(Oc2cc(Cl)c(Cl)cc2Cl)c([N+](=O)[O-])c1,T/C,[13],107 % of control
same,T/C,[5],106 % of control
same,T/C,[4],99 % of control
CC(=O)O[C@H]1C(=O)O[C@@H]2C[C@H]3C(C)=CC(=O)[C@@H](O)[C@]3(C)[C@H]3[C@@]4(O)OC[C@]32[C@@H]1[C@@H](C)[C@H]4O,T/C,"dose: 0.39 mg/kg/injection, schedule: Q01DX009 (ip), vehicle: saline with Tween-80",101 % of control
same,T/C,"dose: 0.78 mg/kg/injection, schedule: Q01DX009 (ip), vehicle: saline with Tween-80",105 % of control
same,T/C,"dose: 1.5 mg/kg/injection, schedule: Q01DX009 (ip), vehicle: Klucel (hydroxypropylcellulose) (HPC)",112 % of control
same,T/C,[15],112 % of control
same,T/C,"dose: 1.56 mg/kg/injection, schedule: Q01DX009 (ip), vehicle: saline with Tween-80",96 % of control
same,T/C,"dose: 3.13 mg/kg/injection, schedule: Q01DX009 (ip), vehicle: saline with Tween-80",107 % of control
same,T/C,[7],107 % of control
same,T/C,[16],164 % of control
same,T/C,[8],118 % of control
Cc1ccc(NC(=O)Nc2ccccc2C)c(C)c1,T/C,[5],115 % of control
same,T/C,[4],115 % of control
same,T/C,[6],118 % of control
COc1cccc2c1C(=O)c1c(O)c3c(c(O)c1C2=O)C[C@@](O)(/C(C)=N\NC=O)C[C@@H]3OC1CC(N)C(O)C(C)O1 (stereo partly specified),T/C,"dose: 0.38 mg/kg/injection, schedule: Q01DX009 (ip), vehicle: saline",112 % of control
same,T/C,"dose: 0.75 mg/kg/injection, schedule: Q01DX009 (ip), vehicle: saline",117 % of control
same,T/C,[15],150 % of control
same,T/C,"dose: 3.0 mg/kg/injection, schedule: Q01DX009 (ip), vehicle: saline",174 % of control
same,T/C,"dose: 6.0 mg/kg/injection, schedule: Q01DX009 (ip), vehicle: saline",216 % of control
same,T/C,[16],211 % of control
Cc1ccc(NC(=O)Nc2cccc3ccccc23)cc1Cl,T/C,[12],94 % of control
same,T/C,[13],88 % of control
CCOC(=O)C(=O)c1c(C)[nH]c2ccccc12,T/C,[4],113 % of control
same,T/C,[6],106 % of control
same,T/C,[14],106 % of control
CC[CH2][Sn]([Cl])([Cl])[CH2]CC,T/C,"dose: 0.5 mg/kg/injection, schedule: Q01DX009 (ip), vehicle: saline",93 % of control and 100 % of control
same,T/C,"dose: 1.0 mg/kg/injection, schedule: Q01DX009 (ip), vehicle: saline",89 % of control and 100 % of control
same,T/C,"dose: 2.0 mg/kg/injection, schedule: Q01DX009 (ip), vehicle: saline",93 % of control
CC(=O)C(Cl)C(=O)c1c(C)[nH]n(-c2ccccc2)c1=O (stereo unspecified),T/C,[13],108 % of control
same,T/C,[5],98 % of control
O=C(O)/C(Cl)=C(/Cl)C(Cl)=C(Cl)Cl,T/C,[9],95 % of control
